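Step 1: Grow cells in 96-well plates. Step 2: Expose to compound for 48 hours at 5 concentrations. Step 3: Interpolate endpoints linearly; if unreached, use highest concentration. At the GI50, growth is halved. TGI: total growth inhibition.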
How the values were obtained:
Experiment in all cases: NCI-60 cell line screen, 48 h
HOP-62 NSCLC = system: HOP-62 NSCLC
HL-60(TB) leukemia = system: HL-60(TB) leukemia
UACC-257 melanoma = system: UACC-257 melanoma
OVCAR-8 ovarian = system: OVCAR-8 ovarian
MCF7 breast = system: MCF7 breast
K-562 leukemia = system: K-562 leukemia
U251 CNS = system: U251 CNS
SW-620 colon = system: SW-620 colon
HCC-2998 colon = system: HCC-2998 colon
MDA-MB-231 breast = system: MDA-MB-231 breast

With `CSCSCC(CO)NC(=O)/C=C\c1c(C)[nH]c(=O)[nH]c1=O` (stereo unspecified) the TGI (HOP-62 NSCLC) was 246 µM, the TGI (HL-60(TB) leukemia) was 46.6 µM and the TGI (UACC-257 melanoma) was 208 µM. It also gave a TGI (OVCAR-8 ovarian) of 89.9 µM, a TGI (MCF7 breast) of 29.2 µM and a TGI (K-562 leukemia) of 111 µM. For the same compound, the TGI (U251 CNS) was 201 µM, the TGI (SW-620 colon) was 207 µM and the TGI (HCC-2998 colon) was 52.9 µM.
`COC(=O)[C@@H]1C=CCN1S(=O)(=O)c1ccc(C)cc1` was tested, and the TGI (HOP-62 NSCLC) was > 100 µM, the TGI (HL-60(TB) leukemia) was 53.5 µM and the TGI (UACC-257 melanoma) was > 100 µM. For the same compound, the TGI (MDA-MB-231 breast) was > 100 µM, the TGI (OVCAR-8 ovarian) was > 100 µM and the TGI (MCF7 breast) was > 100 µM. The TGI (K-562 leukemia) was > 100 µM, the TGI (U251 CNS) was > 100 µM and the TGI (SW-620 colon) was > 100 µM. For the same compound, the TGI (HCC-2998 colon) was > 100 µM.
In the case of `C/C(=N\Nc1nc2cc(F)ccc2s1)c1ccccn1`, the TGI (HOP-62 NSCLC) is reported as > 21.9 µM, the TGI (UACC-257 melanoma) is reported as > 24.4 µM and the TGI (MDA-MB-231 breast) is reported as > 45.1 µM. For the same compound, the TGI (OVCAR-8 ovarian) was 1.79 µM, the TGI (MCF7 breast) was > 100 µM and the TGI (K-562 leukemia) was > 43.8 µM. For the same compound, the TGI (U251 CNS) was > 33.3 µM and the TGI (SW-620 colon) was 5.37 µM.
`COc1c(NC(C)=O)c2ccccc2c2ccccc12` was tested, and the TGI (HOP-62 NSCLC) was > 100 µM, the TGI (HL-60(TB) leukemia) was > 100 µM and the TGI (UACC-257 melanoma) was > 100 µM. For the same compound, the TGI (MDA-MB-231 breast) was > 100 µM, the TGI (OVCAR-8 ovarian) was > 100 µM and the TGI (K-562 leukemia) was > 100 µM. The TGI (U251 CNS) was > 100 µM and the TGI (SW-620 colon) was > 100 µM.
For `CC(=O)c1c(-c2ccco2)c(C#N)c(=S)n(C2OC(CO)C(O)C(O)C2O)c1C` (stereo unspecified), the TGI (HOP-62 NSCLC) was > 100 µM, the TGI (HL-60(TB) leukemia) was > 100 µM and the TGI (UACC-257 melanoma) was > 100 µM. The TGI (MDA-MB-231 breast) was > 100 µM, the TGI (OVCAR-8 ovarian) was > 100 µM and the TGI (MCF7 breast) was > 100 µM. The TGI (K-562 leukemia) was > 100 µM, the TGI (U251 CNS) was > 100 µM and the TGI (SW-620 colon) was > 100 µM.
In the case of `C=C1c2nc3ccccc3n2C=C(c2ccccc2)N1c1ccc(C)cc1`, the TGI (UACC-257 melanoma) is reported as > 100 µM, the TGI (MDA-MB-231 breast) is reported as > 100 µM and the TGI (OVCAR-8 ovarian) is reported as > 100 µM. For the same compound, the TGI (MCF7 breast) was > 100 µM, the TGI (K-562 leukemia) was > 100 µM and the TGI (U251 CNS) was > 100 µM. For the same compound, the TGI (SW-620 colon) was > 100 µM and the TGI (HCC-2998 colon) was 36.7 µM.
`Cc1oc(N)c(S(=O)(=O)/C(C#N)=C/c2ccccc2[N+](=O)[O-])c1C` was tested, and the TGI (HOP-62 NSCLC) was > 100 µM, the TGI (UACC-257 melanoma) was > 100 µM and the TGI (MDA-MB-231 breast) was 82.6 µM. For the same compound, the TGI (MCF7 breast) was > 100 µM, the TGI (K-562 leukemia) was 60.4 µM and the TGI (U251 CNS) was 36.3 µM. For the same compound, the TGI (SW-620 colon) was 63.1 µM and the TGI (HCC-2998 colon) was > 100 µM.
`C=CC(C)(C)/C(=C\CO[Si](C(C)C)(C(C)C)C(C)C)C(=O)N(C)c1ccccc1I` gave a TGI (HOP-62 NSCLC) of 35.8 µM, a TGI (HL-60(TB) leukemia) of 11.4 µM and a TGI (UACC-257 melanoma) of 28.7 µM. For the same compound, the TGI (MDA-MB-231 breast) was 28.9 µM, the TGI (OVCAR-8 ovarian) was 28 µM and the TGI (MCF7 breast) was 26.1 µM. The TGI (U251 CNS) was 25 µM, the TGI (SW-620 colon) was 26.1 µM and the TGI (HCC-2998 colon) was 26 µM.
In the case of `C(=Nc1ccc(-c2nc3ccccc3s2)cc1)c1cccs1`, the TGI (HOP-62 NSCLC) is reported as > 100 µM, the TGI (HL-60(TB) leukemia) is reported as 0.0298 µM and the TGI (UACC-257 melanoma) is reported as > 100 µM. The TGI (OVCAR-8 ovarian) was > 100 µM, the TGI (K-562 leukemia) was > 100 µM and the TGI (U251 CNS) was > 100 µM. For the same compound, the TGI (SW-620 colon) was > 100 µM and the TGI (HCC-2998 colon) was > 100 µM.
With `COc1cc(/C=C2\N=C(c3ccccc3)N(c3cc4cc(Sc5ccccc5)ccc4[nH]3)C2=O)ccc1O` the TGI (HL-60(TB) leukemia) was 4.19 µM, the TGI (UACC-257 melanoma) was > 50 µM and the TGI (OVCAR-8 ovarian) was > 50 µM. For the same compound, the TGI (MCF7 breast) was > 50 µM, the TGI (K-562 leukemia) was > 50 µM and the TGI (SW-620 colon) was > 50 µM. The TGI (HCC-2998 colon) was > 50 µM.
`COc1cccc(C2C(C#N)=C(N)Oc3cc(OCCCCCC[P+](c4ccccc4)(c4ccccc4)c4ccccc4)ccc32)c1` (stereo unspecified) showed a GI50 (HOP-62 NSCLC) of 1.62 µM, a TGI (HOP-62 NSCLC) of 4.16 µM and a GI50 (HL-60(TB) leukemia) of 0.263 µM. The TGI (HL-60(TB) leukemia) was 0.738 µM, the GI50 (K-562 leukemia) was 0.334 µM and the TGI (K-562 leukemia) was > 23.7 µM. The GI50 (HCC-2998 colon) was 0.493 µM and the TGI (HCC-2998 colon) was 1.68 µM.
`COc1ccc(-c2c(/C=N/OCC(=O)O)c3sc4ccccc4n3c2/C=N/OCC(=O)O)cc1` was tested, and the TGI (HOP-62 NSCLC) was > 50 µM, the TGI (UACC-257 melanoma) was > 50 µM and the TGI (MDA-MB-231 breast) was > 50 µM. The TGI (OVCAR-8 ovarian) was > 50 µM, the TGI (MCF7 breast) was > 50 µM and the TGI (K-562 leukemia) was > 50 µM. For the same compound, the TGI (U251 CNS) was > 50 µM, the TGI (SW-620 colon) was > 50 µM and the TGI (HCC-2998 colon) was > 50 µM.
